What was measured:
Assay type in all cases: in vivo, mouse
[1] = test system: lens-induced myopia model mice; assay: Test Example 3: mast cell stabilizer instillation in lens-induced myopia model; details: for progression of myopia: ocular instillation, minus-lens-induced myopia mouse model; for choroidal thinning (change in choroidal thickness) / myopic shift in refraction (change in refractive value) / ocular elongation (change in axial length): once daily ocular instillation, 3 weeks myopia induction, cromolyn 4% solution, pemirolast potassium 0.1% solution, vs PBS group
Description: (§1) The axial length, choroidal thickness, and refractivity of the mice in each group were measured. The axial length and the choroidal thickness were measured using spectral domain optical coherence tomography (Envisu R4310, manufactured by Leica). The refractivity was measured using an infrared photorefractor for mice (made by Professor Schaeffel, University of Tubingen).
To verify the inhibitory effect of mast cell stabilizer instillation on myopia progression, a lens-induced myopia model was employed, wherein myopia was induced in mice by fitting the mice with minus lenses. During the myopia induction period, either cromolyn solution (4% solution) or pemirolast potassium (0.1% solution) was administered once daily by means of ocular instillation.
Following the test method described above, the axial length, refractive value, and choroidal thickness were measured in mice that underwent myopia induction for 3 weeks and ocular instillation of cromolyn solution or pemirolast potassium solution, as well as in control mice, and the amounts of changes therein were calculated (FIG. 7A, B, and C).

[2] = test system: mice with LIM-induced myopia; assay: Test Example 4: mast cell stabilizer vs histamine receptor antagonist instillation in mice with LIM-induced myopia; details: for choroidal thinning (change in choroidal thickness) / myopic shift in refraction (change in refractive value) / ocular elongation (change in axial length): eye drops, pemirolast potassium 0.1% solution, levocabastine 0.025% solution, vs control group
Description: as §1
Anti-allergic drugs are broadly divided into two types: mast cell stabilizers, which inhibit mast cell degranulation, and histamine receptor inhibitors, which inhibit the action of histamine secreted due to mast cell degranulation. In order to clarify whether the myopia suppression effect of the mast cell stabilizer instillation in Test Example 3 was due to the action of the anti-allergic drug or to the inhibition of mast cell degranulation, pemirolast potassium (0.1% solution) and levocabastine solution (0.025% solution) were administered as eye drops, respectively as a mast cell stabilizer and a histamine receptor inhibitor, to mice with LIM-induced myopia, and the myopia-suppressing effects were compared.

[3] = test system: choroidal macrophages; assay: M2 macrophage polarization in the choroid after IL-13 administration, flow cytometry; details: IL-13 during the myopia induction period
Description: The number of macrophages was measured using a flow cytometer (CytoFLEX S, Beckman Coulter) after digestion of the choroid and staining with F4/80 antibody and CD11b antibody. The number of M2 macrophages was measured in the same manner as for the measurement of the number of macrophages, except for the addition of a staining process with CD206 antibody.

[4] = test system: C57BL6J mice; assay: Myopia suppression by IL-13 administration during the myopia induction period (minus lens); details: IL-13 during the myopia induction period
Description: as §1
Changes in blood flow were measured using swept-source optical coherence tomography (OCT S-1, Canon).

[5] = test system: M2 macrophage markers CD163 and CD206; assay: M2 macrophage polarization in the choroid after IL-4 administration (Western blot, real-time PCR); details: IL-4 10 μg/kg BW intraperitoneally
Description: Therefore, IL-4, which is a cytokine necessary for M2 macrophage polarization, was administered to mice, and whether M2 polarization would occur in the choroid was evaluated by means of analyzing the expression levels of M2 macrophage markers CD163 and CD206 (FIG. 3A and B).
C57BL6J mice (n=4 per group) were intraperitoneally administered 0.1 μg/100 μl (10 μg/kg BW) of IL-4 solution. Choroid, retina, and liver samples were taken at 0 hours (before administration) as well as 4, 24, and 48 hours after administration, and the expression of M2 macrophage marker genes was analyzed by Western blot and real-time PCR (FIG. 3). In addition, choroid and retina samples were collected at 0 hours (before administration) as well as 4 and 24 hours after administration, and the expression of oxidative-stress-related genes was analyzed by real-time PCR (FIG. 4).

[6] = test system: C57BL6 mice undergoing myopia induction; assay: Myopia suppression by IL-4 administration in mice undergoing myopia induction (-30 D lens); details: IL-4 10 μg/kg BW intraperitoneally for 3 weeks
Description: as §1
Additionally, IL-4 was administered to mice undergoing myopia induction to evaluate whether there is a myopia suppression effect (FIG. 4).
C57BL6 mice undergoing myopia induction (−30 D lens, n=4) were intraperitoneally administered 0.1 μg/100 μl (10 μg/kg BW) of IL-4 solution for 3 weeks. C57BL6J mice undergoing myopia induction (0 D lens, −30 D lens, n=4 per group) were used as control groups.

In the case of `O=C(O)c1cc(=O)c2c(OCC(O)COc3cccc4oc(C(=O)O)cc(=O)c34)cccc2o1` [cromolyn, cromolyn sodium], the progression of myopia [1] is reported as “suppression”, the “choroidal thinning (change in choroidal thickness)” value [1] is reported as “not observed” and the “myopic shift in refraction (change in refractive value)” value [1] is reported as “not observed”. For the same molecule, the “ocular elongation (change in axial length)” value [1] was “not observed”.

`C[C@@H]1CN([C@H]2CC[C@](C#N)(c3ccc(F)cc3)CC2)CC[C@]1(C(=O)O)c1ccccc1` [levocabastine] was tested, and the “choroidal thinning (change in choroidal thickness)” value [2] was “observed”, the “myopic shift in refraction (change in refractive value)” value [2] was “observed” and the “ocular elongation (change in axial length)” value [2] was “observed”. For the same molecule, the progression of myopia ([2]; ocular instillation, mice undergoing myopia induction by fitting a minus lens) was “not suppressed”.

In the case of `Cc1cccn2c(=O)c(-c3nnn[nH]3)cnc12` [pemirolast potassium], the “choroidal thinning (change in choroidal thickness)” value [2] is reported as “not observed”, the “myopic shift in refraction (change in refractive value)” value [2] is reported as “not observed” and the “ocular elongation (change in axial length)” value [2] is reported as “not observed”. For the same molecule, the progression of myopia [1] was “suppression”, the “choroidal thinning (change in choroidal thickness)” value [1] was “not observed” and the “myopic shift in refraction (change in refractive value)” value [1] was “not observed”. For the same molecule, the “ocular elongation (change in axial length)” value [1] was “not observed”.

With “IL-13: a cytokine that causes M2 polarization of macrophages” the M2 macrophage polarization [3] was “induced”, the choroidal thinning [4] was “suppressed” and the minus-lens-induced ocular elongation [4] was “suppressed”. For the same molecule, the “myopic shift in refraction” value [4] was “suppressed”.

B1: IL-4: a cytokine necessary for M2 macrophage polarization (protein, UniProt P05112 25-153, looked up)
Interleukin-4: HKCDITLQEIIKTLNSLTEQKTLCTELTVTDIFAASKNTTEKETFCRAATVLRQFYSHHEKDTRCLGATAQQFHRHKQLIRFLKRLDRNLWGLAGLNSCPVKEANQSTLENFLERLKTIMREKYSKCSS
In the case of B1, the “expression of M2 markers CD163 and CD206 in the choroid” value ([5]; 0, 4, 24, 48 hours) is reported as “increased the expression”, the M2 macrophage polarization ([5]; choroid) is reported as “confirmed” and the “expression of oxidative-stress-related genes” value ([5]; choroid and retina, 0, 4, 24 hours, real-time PCR) is reported as “suppressed expression”. For the same molecule, the “expression of M2 macrophage marker genes” value ([5]; gene expression analysis) was “increased expression”, the choroidal thinning [6] was “suppresses” and the ocular elongation [6] was “suppresses”. The refractive loss [6] was “suppresses”.

Reference: patent publication US20260240925A1, “METHOD AND COMPOSITION FOR PREVENTING OR TREATING MYOPIA” (Tsubota Laboratory, Inc., priority 2022, published 2026)
